Organism: Rattus norvegicus
Experiment: Open TG-GATES - Regimen: Daily Repeat
Format: toxicity, organism-based, Sprague-Dawley
Parameters: regimen Daily Repeat, gender Male, age 6 weeks
Details: in vivo, po, 30 mg/kg, route gavage, dose level Low; for APTT / Bas / Eos / Fbg / Hb / Ht / Lym / MCH / MCHC / MCV / Mono / Neu / PT / Plat / RBC / Ret / WBC: tissue Blood; for KIDNEY_L / KIDNEY_R / KIDNEY_TOTAL: tissue Kidney; for LIVER: tissue Liver; for A/G / ALP / ALT / AST / BUN / CRE / Ca / Cl / DBIL / GLC / IP / K / LDH / Na / PL / RALB / TBIL / TC / TG / TP / gamma-GTP: tissue Plasma

Structure (SMILES): C[C@]12CCC(=O)C=C1CC[C@@H]1[C@@H]2CC[C@@]2(C)[C@H]1CC[C@]2(C)O [METHYLTESTOSTERONE]
- TERMINAL_BW (72 h, time 3 day): 237.2 g
- APTT (72 h, time 3 day): 15.8 s
- Bas (72 h, time 3 day): 0%
- Eos (72 h, time 3 day): 1.2%
- Fbg (72 h, time 3 day): 296.2 mg/dL
- Hb (72 h, time 3 day): 13.3 g/dL
- Ht (72 h, time 3 day): 38.8%
- Lym (72 h, time 3 day): 75.2%
- MCH (72 h, time 3 day): 21.5 pg
- MCHC (72 h, time 3 day): 34.2%
- MCV (72 h, time 3 day): 63 fL
- Mono (72 h, time 3 day): 2.6%
- Neu (72 h, time 3 day): 20.8%
- PT (72 h, time 3 day): 12.8 s
- Plat (72 h, time 3 day): 111.2 x10_4/uL
- RBC (72 h, time 3 day): 617 x10_4/ul
- Ret (72 h, time 3 day): 6.6%
- WBC (72 h, time 3 day): 57.6 x10_2/uL
- KIDNEY_L (72 h, time 3 day): 1 g
- KIDNEY_R (72 h, time 3 day): 1 g
- KIDNEY_TOTAL (72 h, time 3 day): 2 g
- LIVER (72 h, time 3 day): 11.1 g
- A/G (72 h, time 3 day): 0.9
- ALP (72 h, time 3 day): 1870.2 IU/L
- ALT (72 h, time 3 day): 45.4 IU/L
- AST (72 h, time 3 day): 69.6 IU/L
- BUN (72 h, time 3 day): 15 mg/dL
- CRE (72 h, time 3 day): 0.2 mg/dL
- Ca (72 h, time 3 day): 11 mg/dL
- Cl (72 h, time 3 day): 107.6 meq/L
- DBIL (72 h, time 3 day): 0.018 mg/dL
- GLC (72 h, time 3 day): 195 mg/dL
- IP (72 h, time 3 day): 7.9 mg/dL
- K (72 h, time 3 day): 4.1 meq/L
- LDH (72 h, time 3 day): 58.2 IU/L
- Na (72 h, time 3 day): 144 meq/L
- PL (72 h, time 3 day): 144 mg/dL
- RALB (72 h, time 3 day): 2.7 g/dL
- TBIL (72 h, time 3 day): 0.03 mg/dL
- TC (72 h, time 3 day): 67.2 mg/dL
- TG (72 h, time 3 day): 123.6 mg/dL
- TP (72 h, time 3 day): 5.8 g/dL
- gamma-GTP (72 h, time 3 day): 1.4 IU/L
- TERMINAL_BW ([…], time 7 day): 271.8 g
- TERMINAL_BW ([…], time 14 day): 329.8 g
- TERMINAL_BW ([…], time 28 day): 409.3 g
- APTT ([…], time 7 day): 16.5 s
- Bas ([…], time 7 day): 0%
- Eos ([…], time 7 day): 1%
- Fbg ([…], time 7 day): 308.4 mg/dL
- Hb ([…], time 7 day): 13.1 g/dL
- Ht ([…], time 7 day): 38.1%
- Lym ([…], time 7 day): 76.8%
- MCH ([…], time 7 day): 21 pg
- MCHC ([…], time 7 day): 34.4%
- MCV ([…], time 7 day): 61 fL
- Mono ([…], time 7 day): 3%
- Neu ([…], time 7 day): 18.6%
- PT ([…], time 7 day): 13 s
- Plat ([…], time 7 day): 111.9 x10_4/uL
- RBC ([…], time 7 day): 625.6 x10_4/ul
- Ret ([…], time 7 day): 5.8%
- WBC ([…], time 7 day): 78.3 x10_2/uL
- APTT ([…], time 14 day): 17.7 s
- Bas ([…], time 14 day): 0.2%
- Eos ([…], time 14 day): 1%
- Fbg ([…], time 14 day): 289.2 mg/dL
- Hb ([…], time 14 day): 14.4 g/dL
- Ht ([…], time 14 day): 41.7%
- Lym ([…], time 14 day): 79.2%
- MCH ([…], time 14 day): 20.6 pg
- MCHC ([…], time 14 day): 34.6%
- MCV ([…], time 14 day): 59.6 fL
- Mono ([…], time 14 day): 2.4%
- Neu ([…], time 14 day): 16%
- PT ([…], time 14 day): 13.3 s
- Plat ([…], time 14 day): 114.4 x10_4/uL
- RBC ([…], time 14 day): 700.2 x10_4/ul
- Ret ([…], time 14 day): 3.9%
- WBC ([…], time 14 day): 96.1 x10_2/uL
- APTT ([…], time 28 day): 19.2 s
- Bas ([…], time 28 day): 0%
- Eos ([…], time 28 day): 1.4%
- Fbg ([…], time 28 day): 300.2 mg/dL
- Hb ([…], time 28 day): 15.7 g/dL
- Ht ([…], time 28 day): 44.9%
- Lym ([…], time 28 day): 75.8%
- MCH ([…], time 28 day): 19.5 pg
- MCHC ([…], time 28 day): 35%
- MCV ([…], time 28 day): 55.6 fL
- Mono ([…], time 28 day): 2.6%
- Neu ([…], time 28 day): 20.2%
- PT ([…], time 28 day): 13.1 s
- Plat ([…], time 28 day): 101.6 x10_4/uL
- RBC ([…], time 28 day): 809.2 x10_4/ul
- Ret ([…], time 28 day): 2.2%
- WBC ([…], time 28 day): 84 x10_2/uL
- KIDNEY_L ([…], time 7 day): 1.1 g
- KIDNEY_R ([…], time 7 day): 1.1 g
- KIDNEY_TOTAL ([…], time 7 day): 2.3 g
- KIDNEY_L ([…], time 14 day): 1.3 g
- KIDNEY_R ([…], time 14 day): 1.2 g
- KIDNEY_TOTAL ([…], time 14 day): 2.5 g
- KIDNEY_L ([…], time 28 day): 1.4 g
- KIDNEY_R ([…], time 28 day): 1.4 g
- KIDNEY_TOTAL ([…], time 28 day): 2.9 g
- LIVER ([…], time 7 day): 12.5 g
- LIVER ([…], time 14 day): 14.5 g
- LIVER ([…], time 28 day): 17.1 g
- A/G ([…], time 7 day): 0.9
- ALP ([…], time 7 day): 1824.8 IU/L
- ALT ([…], time 7 day): 46.8 IU/L
- AST ([…], time 7 day): 75.2 IU/L
- BUN ([…], time 7 day): 15 mg/dL
- CRE ([…], time 7 day): 0.2 mg/dL
- Ca ([…], time 7 day): 10.9 mg/dL
- Cl ([…], time 7 day): 106 meq/L
- DBIL ([…], time 7 day): 0.02 mg/dL
- GLC ([…], time 7 day): 190.4 mg/dL
- IP ([…], time 7 day): 7.6 mg/dL
- K ([…], time 7 day): 4.1 meq/L
- LDH ([…], time 7 day): 63.6 IU/L
- Na ([…], time 7 day): 142.4 meq/L
- PL ([…], time 7 day): 133 mg/dL
- RALB ([…], time 7 day): 2.7 g/dL
- TBIL ([…], time 7 day): 0.026 mg/dL
- TC ([…], time 7 day): 54.6 mg/dL
- TG ([…], time 7 day): 133 mg/dL
- TP ([…], time 7 day): 5.8 g/dL
- gamma-GTP ([…], time 7 day): 1.2 IU/L
- A/G ([…], time 14 day): 0.8
- ALP ([…], time 14 day): 1301 IU/L
- ALT ([…], time 14 day): 49.8 IU/L
- AST ([…], time 14 day): 72.8 IU/L
- BUN ([…], time 14 day): 16.4 mg/dL
- CRE ([…], time 14 day): 0.2 mg/dL
- Ca ([…], time 14 day): 10.5 mg/dL
- Cl ([…], time 14 day): 106.8 meq/L
- DBIL ([…], time 14 day): 0.02 mg/dL
- GLC ([…], time 14 day): 192.6 mg/dL
- IP ([…], time 14 day): 7.1 mg/dL
- K ([…], time 14 day): 4 meq/L
- LDH ([…], time 14 day): 132.6 IU/L
- Na ([…], time 14 day): 142.2 meq/L
- PL ([…], time 14 day): 134.2 mg/dL
- RALB ([…], time 14 day): 2.7 g/dL
- TBIL ([…], time 14 day): 0.026 mg/dL
- TC ([…], time 14 day): 54 mg/dL
- TG ([…], time 14 day): 178.6 mg/dL
- TP ([…], time 14 day): 5.9 g/dL
- gamma-GTP ([…], time 14 day): 1.2 IU/L
- A/G ([…], time 28 day): 0.8
- ALP ([…], time 28 day): 1236.2 IU/L
- ALT ([…], time 28 day): 43.6 IU/L
- AST ([…], time 28 day): 66.8 IU/L
- BUN ([…], time 28 day): 16.6 mg/dL
- CRE ([…], time 28 day): 0.2 mg/dL
- Ca ([…], time 28 day): 11.1 mg/dL
- Cl ([…], time 28 day): 105.2 meq/L
- DBIL ([…], time 28 day): 0.022 mg/dL
- GLC ([…], time 28 day): 192 mg/dL
- IP ([…], time 28 day): 6.7 mg/dL
- K ([…], time 28 day): 3.9 meq/L
- LDH ([…], time 28 day): 76.6 IU/L
- Na ([…], time 28 day): 143.6 meq/L
- PL ([…], time 28 day): 141.4 mg/dL
- RALB ([…], time 28 day): 2.9 g/dL
- TBIL ([…], time 28 day): 0.034 mg/dL
- TC ([…], time 28 day): 56.2 mg/dL
- TG ([…], time 28 day): 214 mg/dL
- TP ([…], time 28 day): 6.3 g/dL
- gamma-GTP ([…], time 28 day): 1 IU/L

Reference: ChEMBL document CHEMBL3885861, “Open TG-GATES”
